This note sets out measurements from patent US11795177B2, “Substituted quinoline analogs as aldehyde dehydrogenase 1A1 (ALDH1A1) inhibitors” (THE UNITED STATES OF AMERICA, AS REPRESENTED BY THE …, priority 2017, dated 2023).

This test relates to MIA PaCa-2 cells. Nature of the test: MIA PaCa2 cell-based assay (1,536-well high-content imaging ALDEFLUOR assay). Also noted: species or system human. The following applies: Homo sapiens, 0.5 h, ALDEFLUOR BAAA substrate 500 nM, 30 minutes. How it is done:
Example 359. MIA PaCa2 Cell-Based Assay (In Vitro Assay)
1,536-Well High-Content Imaging ALDEFLUOR Assay
The ALDEFLUOR™ kit was purchased from […] Technologies (Vancouver, Canada; #01700). MIA PaCa-2 cells (5 μL; 1,000 cells/well) were dispensed into black, optical quality (cyclic olefin copolymer) clear bottom, medium binding TC treated 1,536-well plates (Aurora Microplates, Whitefish Mont.) using a Multidrop Combi dispenser (ThermoFisher) and incubated overnight (37° C., 5% CO2, 85% RH). Media (RPMI 1640 (Life Technologies, Carlsbad, Calif.), supplemented with 2 mM L-Glutamine (Life Technologies), 10% HyClone™ fetal bovine serum (FBS, GE Healthcare, Piscataway, N.J.) and 100 U/mL penicillin and 100 μg/mL streptomycin (Life Technologies)) was subsequently removed by centrifuging plates upside down using a plate adaptor to collect media. A solution of BAAA substrate ([…] Technologies) and Hoechst 33342 (ThermoFisher, final concentrations of 500 nM and 0.5 nM, respectively) in ALDEFLUOR™ buffer ([…] Technologies #01700) was dispensed onto cells using a Multidrop Combi followed by immediate transfer (23 nL) of compound or control solutions using a Wako Pin-tool (final percentage of DMSO in the cell plates was 0.5%). Unless otherwise noted, all compounds were assayed as 16-point dilutions spanning a final concentration range of 1.4 nM to 47.8 μM. The neutral and positive assay controls were DMSO and DEAB (4.6 μM), respectively. Cells were incubated for 30 minutes or the indicated amount of time at 37° C., 5% CO2, 85% RH to allow the conversion of BAAA into BAA. Supernatant was subsequently removed by centrifugation as described above, then ALDEFLUOR™ buffer (3 μl) was dispensed by Multidrop Combi before imaging on an IN Cell 2200 (GE Healthcare).
The above assay was modified for an online robotic screening system. After cell plating and overnight incubation, 4 μL of media were removed using a 64-tip metal aspirator head on a Wako aspirator station, leaving 1 μL remaining in the well, followed by a 4 μL dispense of BAAA and Hoechst 33342 in ALDEFLUOR™ buffer, for a final concentration of 500 nM and 0.5 nM, respectively Immediately following the dispense, 23 nL of compound or control solutions were transferred using a Wako Pin-tool. Cells were incubated for 30 minutes at 37° C., 5% CO2, 85% RH, followed by a 4 μL media removal using the Wako aspirator, and a subsequent 3 μL addition of ALDEFLUOR™ buffer. Plates were then immediately read on the IN Cell 2200 as described below.
Image Acquisition and Analysis
For images captured on the IN Cell 2200 widefield automated microscope, a 10×0.45 NA Plan Apo objective lens was used to capture the entire well of the 1,536-well plate using standard DAPI (390/18×, 432/48 m) and FITC (475/28×, 525/48 m) filter sets at 50 msec and 100 msec exposures, respectively. Images were subsequently analyzed using IN Cell Investigator v1.6.2 analysis software's canned Multi-Target Analysis algorithm (GE Healthcare). Hoechst stained nuclei were identified using top hat segmentation with a minimum area of 75 μm^2 and sensitivity of 93. BAA-retaining cells captured via FITC channel, were identified using multiscale top hat segmentation with a minimum area of 100 μm^2 and a sensitivity setting of 16. […] Data were plotted using GraphPad Prism software (GraphPad, San Diego, Calif.).

In turn, `O=C(c1cnc2ccc(F)cc2c1N1CCC2(CC1)OCCO2)N1CCN(C(=O)C2CC2)CC1` [Example 31, (4-(cyclopropanecarbonyl)piperazin-1-yl)(6-fluoro-4-(1,4-dioxa-8-azaspiro[4.5]decan-8-yl)quinolin-3-yl)methanone] registered a 50% inhibitory concentration (IC50) of 1000 to 10000 nM.

In the case of `CS(=O)(=O)N1CCN(c2c(C(=O)N3CCN(C(=O)C4CC4)CC3)cnc3ccc(F)cc23)CC1` [Cpd. 303, (4-(cyclopropanecarbonyl)piperazin-1-yl)(6-fluoro-4-(4-(methylsulfonyl)piperazin-1-yl)quinolin-3-yl)methanone], the IC50 lay within 1000 to 10000 nM.

The compound `CCS(=O)(=O)N1CCN(C(=O)c2cnc3ccc(F)cc3c2N2CCC(C)(C#N)CC2)CC1` [Example 156, 1-(3-(4-(ethylsulfonyl)piperazine-1-carbonyl)-6-fluoroquinolin-4-yl)-4-methylpiperidine-4-carbonitrile] yielded an IC50 of 1000 to 10000 nM.

In turn, `CC1(C#N)CCN(c2c(C(=O)N3CCN(C(=O)C4CC4)CC3)cnc3ccsc23)CC1` [Example 233, 1-(6-(4-(cyclopropanecarbonyl)piperazine-1-carbonyl)thieno[3,2-b]pyridin-7-yl)-4-methylpiperidine-4-carbonitrile] registered an IC50 of 500 to 1000 nM.

Compound `COc1ccc2ncc(C(=O)N3CCN(S(C)(=O)=O)CC3)c(-c3ccc(C4(C#N)CC4)cc3)c2c1` [Cpd. 321, 1-(4-(6-methoxy-3-(4-(methylsulfonyl)piperazine-1-carbonyl)quinolin-4-yl)phenyl)cyclopropane-1-carbonitrile] had an IC50 below 500 nM.

On to `CN(C)C(=O)N1CCN(C(=O)c2cnc3ccc(F)cc3c2N2CCC(C)(C#N)CC2)CC1` [Example 182, 4-(4-(4-cyano-4-methylpiperidin-1-yl)-6-fluoroquinoline-3-carbonyl)-N,N-dimethylpiperazine-1-carboxamide], for which the half-inhibitory concentration (IC50) was 1000 to 10000 nM.

Regarding `CC(=O)N1CCN(c2c(C(=O)N3CCN(C(=O)C4CC4)CC3)cnc3ccc(F)cc23)CC1` [Cpd. 304, 1-(4-(3-(4-(cyclopropanecarbonyl)piperazine-1-carbonyl)-6-fluoroquinolin-4-yl)piperazin-1-yl)ethanone], the IC50 is above 10000 nM.

In the case of `O=C(c1cnc2ccc(F)cc2c1N1CCC(c2ccccc2)CC1)N1CCN(C(=O)C2CC2)CC1` [Example 72, (4-(cyclopropanecarbonyl)piperazin-1-yl)(6-fluoro-4-(4-phenylpiperidin-1-yl)quinolin-3-yl)methanone], the IC50 is above 10000 nM.

As to `N#CC1(c2ccc(-c3c(C(=O)N4CCN(C(=O)C5CC5)CC4)cnc4ccsc34)cc2)CC1` [Example 288, 1-(4-(6-(4-(cyclopropanecarbonyl)piperazine-1-carbonyl)thieno[3,2-b]pyridin-7-yl)phenyl)cyclopropanecarbonitrile], the IC50 is below 500 nM.

For `CC(=O)C1(c2ccccc2)CCN(c2c(C(=O)N3CCN(S(C)(=O)=O)CC3)cnc3ccc(F)cc23)CC1` [Example 216, 1-(1-(6-fluoro-3-(4-(methylsulfonyl)piperazine-1-carbonyl)quinolin-4-yl)-4-phenylpiperidin-4-yl)ethanone], the IC50 was below 500 nM.

Consider `COc1ccc2ncc(C(=O)N3CCN(S(C)(=O)=O)CC3)c(N3CCC(C#N)(c4ccccc4)CC3)c2c1` [Cpd. 317, 1-(6-methoxy-3-(4-(methylsulfonyl)piperazine-1-carbonyl)quinolin-4-yl)-4-phenylpiperidine-4-carbonitrile], for which the IC50 is below 500 nM.

Compound `CCC1(CC)CCN(c2c(C(=O)N3CCN(C(=O)C4CC4)CC3)cnc3ccc(F)cc23)CC1` [Example 81, (4-(cyclopropanecarbonyl)piperazin-1-yl)(4-(4,4-diethylpiperidin-1-yl)-6-fluoroquinolin-3-yl)methanone] gave an IC50 of 1000 to 10000 nM.

`O=C(c1cnc2ccc(F)cc2c1N1CCC2(CCCC2)CC1)N1CCN(C(=O)C2CC2)CC1` [Example 62, (4-(cyclopropanecarbonyl)piperazin-1-yl)(6-fluoro-4-(8-azaspiro[4.5]decan-8-yl)quinolin-3-yl)methanone] registered an IC50 above 10000 nM.

As a reminder, the IC50 is the point on the concentration scale where inhibition reaches its midpoint. Lower therefore signals greater potency in that assay.
